Common to all, as to assay type: functional, cell-based
The subject of one experiment is SK-OV-3. In words: Cytotoxicity against human SKOV3 cells after 3 days by MTT assay. The conditions noted are these: SK-OV-3, 72 h. In general terms: Tetrazolium assays rely on reduction of a dye to a coloured formazan, in cell work by metabolically active cells.
The subject of the next experiment is NCI-H460. In words: Cytotoxicity against human NCI-H460 cells after 3 days by MTT assay. The conditions noted are these: NCI-H460, 72 h.
Another experiment relates to HepG2. The experiment is described as follows: Cytotoxicity against human HepG2 cells after 3 days by MTT assay. The conditions noted are these: HepG2, 72 h.
For the next experiment, the system named is A549. The experiment is described as follows: Cytotoxicity against human A549 cells after 3 days by MTT assay. The note with it: A549, 72 h.

The term IC50 denotes the concentration that gives 50% inhibition. In the case of `CCOP(=O)(OCC)C(NC(=S)NC(=O)[C@]1(C)CCC[C@]2(C)c3ccc(C(C)C)cc3C(=O)C[C@@H]12)c1cccc(C)c1` (stereo not given in full), the IC50 is > 50 µM in the experiment with SK-OV-3, 42.7 µM in the experiment on NCI-H460, > 50 µM in the experiment on HepG2 and 37.1 µM with A549.

With `CCOP(=O)(OCC)C(NC(=S)NC(=O)[C@]1(C)CCC[C@]2(C)c3ccc(C(C)C)cc3C(=O)C[C@@H]12)c1ccc(Br)cc1` (stereo not given in full), the 50% inhibitory concentration (IC50) in the experiment with SK-OV-3 was 36.9 µM; in the experiment on NCI-H460 it was 27.9 µM; in the experiment on HepG2, > 50 µM; in the experiment with A549 it was 49.6 µM.

Take `CCOP(=O)(OCC)C(NC(=S)NC(=O)[C@]1(C)CCC[C@]2(C)c3ccc(C(C)C)cc3C(=O)C[C@@H]12)c1ccccc1Cl` (stereo not given in full): the IC50 with SK-OV-3 came out at 27.9 µM; in the experiment with NCI-H460, 36.1 µM; in the experiment with HepG2, 39.9 µM; in the experiment with A549, 22.5 µM.

Turning to `CCOP(=O)(OCC)C(NC(=S)NC(=O)[C@]1(C)CCC[C@]2(C)c3ccc(C(C)C)cc3/C(=N\O)C[C@@H]12)c1ccc(Br)cc1` (stereo not given in full), the concentration for half-maximal inhibition (IC50) worked out at 12.7 µM in the experiment with SK-OV-3, 22.6 µM in the experiment on NCI-H460, 26.9 µM in the experiment with HepG2 and 19 µM in the experiment with A549.

With `O=c1[nH]cc(F)c(=O)[nH]1` [FLUOROURACIL], the IC50 in the experiment on SK-OV-3 was 24.4 µM; in the experiment with NCI-H460, 44 µM; in the experiment with HepG2, 30 µM; in the experiment with A549, 34.3 µM.

`CCOP(=O)(OCC)C(NC(=S)NC(=O)[C@]1(C)CCC[C@]2(C)c3ccc(C(C)C)cc3/C(=N\O)C[C@@H]12)c1cccc(C)c1` (stereo not given in full): the 50% inhibitory concentration (IC50) was determined as 28.6 µM with SK-OV-3, 37.9 µM in the experiment with NCI-H460, 12.5 µM in the experiment with HepG2 and 12.9 µM with A549.

Regarding `CCOP(=O)(OCC)C(NC(=S)NC(=O)[C@]1(C)CCC[C@]2(C)c3ccc(C(C)C)cc3/C(=N\O)C[C@@H]12)c1ccc2ccccc2c1` (stereo not given in full), the IC50 in the experiment with SK-OV-3 was 40.6 µM; in the experiment on NCI-H460 it was 26.8 µM; with HepG2, 20.9 µM; in the experiment with A549 it was > 50 µM.

As for `CC(C)c1ccc2c(c1)CC[C@H]1[C@](C)(C(=O)O)CCC[C@]21C` [DEHYDROABIETIC ACID], the half-maximal inhibitory concentration (IC50) with SK-OV-3 came to 84 µM; with NCI-H460, 84.5 µM; in the experiment with HepG2, 85 µM; in the experiment with A549, 79.5 µM.

Regarding `CCOP(=O)(OCC)C(NC(=S)NC(=O)[C@]1(C)CCC[C@]2(C)c3ccc(C(C)C)cc3C(=O)C[C@@H]12)c1ccc(C)cc1` (stereo not given in full), the IC50 in the experiment on SK-OV-3 amounted to 11.8 µM; in the experiment on NCI-H460 it was 24.8 µM; with HepG2 it was 15.2 µM; in the experiment with A549, 22.2 µM.

Consider `CCOP(=O)(OCC)C(NC(=S)NC(=O)[C@]1(C)CCC[C@]2(C)c3ccc(C(C)C)cc3C(=O)C[C@@H]12)c1ccc(F)cc1` (stereo not given in full), for which the IC50 was 30.2 µM in the experiment on SK-OV-3, 22.4 µM in the experiment with NCI-H460, 45.4 µM in the experiment with HepG2 and 17.4 µM in the experiment on A549.

As for `CCOP(=O)(OCC)C(NC(=S)NC(=O)[C@]1(C)CCC[C@]2(C)c3ccc(C(C)C)cc3C(=O)C[C@@H]12)c1cccc(OC)c1` (stereo not given in full), the IC50 in the experiment with SK-OV-3 amounted to 8.41 µM; in the experiment with NCI-H460, 11.5 µM; in the experiment on HepG2 it was 15.8 µM; with A549 it was 14.1 µM.

For `CCOP(=O)(OCC)C(NC(=S)NC(=O)[C@]1(C)CCC[C@]2(C)c3ccc(C(C)C)cc3/C(=N\O)C[C@@H]12)c1ccccc1F` (stereo not given in full), the half-inhibitory concentration (IC50) in the experiment on SK-OV-3 was 19.9 µM; with NCI-H460, 19.3 µM; in the experiment with HepG2, 9.73 µM; with A549, 9.16 µM.

For `CCOP(=O)(OCC)C(NC(=S)NC(=O)[C@]1(C)CCC[C@]2(C)c3ccc(C(C)C)cc3/C(=N\O)C[C@@H]12)c1ccccc1Cl` (stereo not given in full), the IC50 with SK-OV-3 is 40.2 µM; with NCI-H460, 29.1 µM; with HepG2, > 50 µM; in the experiment with A549 it was 32.8 µM.

With `CCOP(=O)(OCC)C(NC(=S)NC(=O)[C@]1(C)CCC[C@]2(C)c3ccc(C(C)C)cc3/C(=N\O)C[C@@H]12)c1ccc(Cl)cc1` (stereo not given in full), the IC50 with SK-OV-3 stood at 16.6 µM; with NCI-H460, 23.8 µM; in the experiment on HepG2 it was 21.4 µM; with A549, 9.66 µM.

On to `CCOP(=O)(OCC)C(NC(=S)NC(=O)[C@]1(C)CCC[C@]2(C)c3ccc(C(C)C)cc3C(=O)C[C@@H]12)c1cccc2ccccc12` (stereo not given in full), for which the IC50 in the experiment on SK-OV-3 is 27.3 µM; with NCI-H460, > 50 µM; in the experiment on HepG2, > 50 µM; in the experiment with A549 it was 32.6 µM.

As to `CCOP(=O)(OCC)C(NC(=S)NC(=O)[C@]1(C)CCC[C@]2(C)c3ccc(C(C)C)cc3/C(=N\O)C[C@@H]12)c1ccccc1OC` (stereo not given in full), the IC50 in the experiment on SK-OV-3 came to 17.9 µM; in the experiment with NCI-H460 it was 18.6 µM; in the experiment on HepG2 it was 8.62 µM; in the experiment with A549 it was 27.1 µM.

For the compound `CCOP(=O)(OCC)C(NC(=S)NC(=O)[C@]1(C)CCC[C@]2(C)c3ccc(C(C)C)cc3/C(=N\O)C[C@@H]12)c1cccc(Cl)c1` (stereo not given in full), the half-inhibitory concentration (IC50) with SK-OV-3 worked out at 12.3 µM; in the experiment with NCI-H460, 28.4 µM; with HepG2, 13.2 µM; with A549, 19 µM.

In the case of `CCOP(=O)(OCC)C(NC(=S)NC(=O)[C@]1(C)CCC[C@]2(C)c3ccc(C(C)C)cc3C(=O)C[C@@H]12)c1ccc(Cl)cc1` (stereo not given in full), the IC50 in the experiment with SK-OV-3 is 31.4 µM; with NCI-H460, 41.2 µM; in the experiment with HepG2, 39.5 µM; in the experiment with A549, 30.3 µM.

`CCOP(=O)(OCC)C(NC(=S)NC(=O)[C@]1(C)CCC[C@]2(C)c3ccc(C(C)C)cc3C(=O)C[C@@H]12)c1ccccc1` (stereo not given in full): the 50% inhibitory concentration (IC50) with SK-OV-3 is 42.5 µM; in the experiment with NCI-H460, 21.1 µM; with HepG2, 46.8 µM; in the experiment with A549 it was 21.6 µM.

`CCOP(=O)(OCC)C(NC(=S)NC(=O)[C@]1(C)CCC[C@]2(C)c3ccc(C(C)C)cc3C(=O)C[C@@H]12)c1cccc(F)c1` (stereo not given in full): the IC50 is > 50 µM in the experiment with SK-OV-3, 39.8 µM in the experiment with NCI-H460, 37.1 µM in the experiment with HepG2 and 33 µM with A549.

As for `CCOP(=O)(OCC)C(NC(=S)NC(=O)[C@]1(C)CCC[C@]2(C)c3ccc(C(C)C)cc3/C(=N\O)C[C@@H]12)c1ccc(OC)cc1` (stereo not given in full), the 50% inhibitory concentration (IC50) in the experiment with SK-OV-3 turned out to be 30.8 µM; in the experiment on NCI-H460, 38.5 µM; in the experiment with HepG2, 17 µM; in the experiment with A549, 23.6 µM.

`CCOP(=O)(OCC)C(NC(=S)NC(=O)[C@]1(C)CCC[C@]2(C)c3ccc(C(C)C)cc3C(=O)C[C@@H]12)c1ccc(OC)cc1` (stereo not given in full): the IC50 in the experiment on SK-OV-3 was 49.9 µM; in the experiment with NCI-H460, 24.5 µM; with HepG2 it was > 50 µM; in the experiment with A549 it was 26.1 µM.

Take `CCOP(=O)(OCC)C(NC(=S)NC(=O)[C@]1(C)CCC[C@]2(C)c3ccc(C(C)C)cc3/C(=N\O)C[C@@H]12)c1ccccc1` (stereo not given in full): the IC50 in the experiment with SK-OV-3 is 22.1 µM; in the experiment with NCI-H460, 36.7 µM; in the experiment with HepG2, 27.2 µM; in the experiment with A549, 27 µM.

On to `CCOP(=O)(OCC)C(NC(=S)NC(=O)[C@]1(C)CCC[C@]2(C)c3ccc(C(C)C)cc3/C(=N\O)C[C@@H]12)c1cccc(Br)c1` (stereo not given in full), for which the IC50 came out at 37.7 µM with SK-OV-3, 30.2 µM in the experiment on NCI-H460, 42.8 µM in the experiment on HepG2 and 34.7 µM in the experiment on A549.

With `CCOP(=O)(OCC)C(NC(=S)NC(=O)[C@]1(C)CCC[C@]2(C)c3ccc(C(C)C)cc3C(=O)C[C@@H]12)c1cccc(Cl)c1` (stereo not given in full), the IC50 in the experiment on SK-OV-3 was > 50 µM; with NCI-H460, > 50 µM; with HepG2 it was > 50 µM; in the experiment with A549 it was 44.1 µM.
